In patent publication US6413935B1, “Induction of immune response against desired determinants” (priority 1993, dated 2002):
pIC50: −log10 of the molar value. Read-outs that look alike come from different tables or passages of the source. Non-standard residues stand in square brackets, D forms with d. Residues, ends and D or L forms follow the SMILES beside them. Cha = N[C@@H](CC1CCCCC1)C(=O)O

Key:
[1] = test system: DR5; conditions: read-out: PADRE Class II Binding Affinities DR5
[2] = test system: DR7; conditions: read-out: PADRE Class II Binding Affinities DR7
[3] = test system: DQ3.1; conditions: for pIC50: read-out: PADRE Class II Binding Affinities, Table VIII A

Compound	pIC50 ([1]; Table VIII A)	pIC50 ([2]; Table VIII A)	pIC50 [3]	other results
CC(C)C[C@H](NC(=O)[C@@H](NC(=O)[C@@H](NC(=O)[C@H](C)NC(=O)[C@H](C)NC(=O)[C@H](C)NC(=O)[C@H](CC1CCCCC1)NC(=O)[C@H](C)NC(=O)[C@@H](C)N)[C@@H](C)O)[C@@H](C)O)C(=O)N[C@@H](CCCCN)C(=O)N[C@@H](C)C(=O)N[C@@H](C)C(=O)N[C@H](C)C(N)=O [Peptide 906.28]	8.30	7.16	7.55	–
CC(C)C[C@H](NC(=O)[C@@H](NC(=O)[C@H](CC(N)=O)NC(=O)[C@H](C)NC(=O)[C@H](Cc1c[nH]c2ccccc12)NC(=O)[C@@H](NC(=O)[C@H](CC1CCCCC1)NC(=O)[C@H](CCCCN)NC(=O)[C@@H](C)N)C(C)C)[C@@H](C)O)C(=O)N[C@@H](CCCCN)C(=O)N[C@@H](C)C(=O)N[C@@H](C)C(=O)N[C@H](C)C(N)=O [Peptide 965.031]	–	–	–	pIC50 ([1]; Table IX): 8.08; pIC50 ([1]; Table IX, listed as 965.032): 8.54; pIC50 ([2]; Table IX): 6.68
CC[C@H](C)[C@H](NC(=O)[C@@H](NC(=O)[C@H](C)NC(=O)[C@H](C)NC(=O)[C@H](C)NC(=O)[C@H](C)NC(=O)[C@H](CC1CCCCC1)NC(=O)[C@H](C)NC(=O)[C@@H](C)N)[C@@H](C)O)C(=O)N[C@@H](CCCCN)C(=O)N[C@@H](C)C(=O)N[C@@H](C)C(=O)N[C@H](C)C(N)=O [Peptide 906.34]	8.51	7.25	7.52	–
CC(C)C[C@H](NC(=O)[C@@H](NC(=O)[C@H](CCC(=O)O)NC(=O)[C@H](C)NC(=O)[C@H](C)NC(=O)[C@H](C)NC(=O)[C@H](CC1CCCCC1)NC(=O)[C@H](C)NC(=O)[C@@H](C)N)[C@@H](C)O)C(=O)N[C@@H](CCCCN)C(=O)N[C@@H](C)C(=O)N[C@@H](C)C(=O)N[C@H](C)C(N)=O [Peptide 906.24]	7.95	6.43	7.33	–
CC(C)C[C@H](NC(=O)[C@@H](NC(=O)[C@H](C)NC(=O)[C@H](C)NC(=O)[C@H](C)NC(=O)[C@H](C)NC(=O)[C@H](CC1CCCCC1)NC(=O)[C@H](C)NC(=O)[C@@H](C)N)[C@@H](C)O)C(=O)N[C@@H](CCCCN)C(=O)N[C@@H](CCCCN)C(=O)N[C@@H](C)C(=O)N[C@H](C)C(N)=O [Peptide 906.40] (H-[dA]A[Cha]AAAATLKKA[dA]-NH2; N-terminus and C-terminus assumed)	7.78	6.26	7.44	–
CC(C)C[C@H](NC(=O)[C@@H](NC(=O)[C@H](CCC(N)=O)NC(=O)[C@H](C)NC(=O)[C@H](C)NC(=O)[C@H](C)NC(=O)[C@H](CC1CCCCC1)NC(=O)[C@H](C)NC(=O)[C@@H](C)N)[C@@H](C)O)C(=O)N[C@@H](CCCCN)C(=O)N[C@@H](C)C(=O)N[C@@H](C)C(=O)N[C@H](C)C(N)=O [Peptide 906.25]	8.52	–	7.37	–
CC(C)C[C@H](NC(=O)[C@@H](NC(=O)[C@H](Cc1ccccc1)NC(=O)[C@H](C)NC(=O)[C@H](C)NC(=O)[C@H](C)NC(=O)[C@H](CC1CCCCC1)NC(=O)[C@H](C)NC(=O)[C@@H](C)N)[C@@H](C)O)C(=O)N[C@@H](CCCCN)C(=O)N[C@@H](C)C(=O)N[C@@H](C)C(=O)N[C@H](C)C(N)=O [Peptide 906.27]	8.59	7.18	7.36	–
CC(C)C[C@H](NC(=O)[C@@H](NC(=O)[C@H](C)NC(=O)[C@H](C)NC(=O)[C@H](C)NC(=O)[C@H](C)NC(=O)[C@H](CC1CCCCC1)NC(=O)[C@H](C)NC(=O)[C@@H](C)N)[C@@H](C)O)C(=O)N[C@@H](CCCCN)C(=O)N[C@@H](C)C(=O)N[C@H](C(=O)N[C@H](C)C(N)=O)C(C)C [Peptide 906.49] (H-[dA]A[Cha]AAAATLKAV[dA]-NH2; N-terminus and C-terminus assumed)	8.35	7.55	7.84	–
CC(C)C[C@H](NC(=O)[C@@H](NC(=O)[C@H](C)NC(=O)[C@H](C)NC(=O)[C@H](C)NC(=O)[C@H](C)NC(=O)[C@H](CC1CCCCC1)NC(=O)[C@H](C)NC(=O)[C@@H](C)N)[C@@H](C)O)C(=O)N[C@@H](CCC(=O)O)C(=O)N[C@@H](C)C(=O)N[C@@H](C)C(=O)N[C@H](C)C(N)=O [Peptide 906.35]	7.98	–	7.40	–
CC(C)C[C@H](NC(=O)[C@@H](NC(=O)[C@H](C)NC(=O)[C@H](C)NC(=O)[C@H](C)NC(=O)[C@H](C)NC(=O)[C@H](CC1CCCCC1)NC(=O)[C@H](C)NC(=O)[C@@H](C)N)[C@@H](C)O)C(=O)N[C@@H](CCCCN)C(=O)N[C@@H](CCC(N)=O)C(=O)N[C@@H](C)C(=O)N[C@H](C)C(N)=O [Peptide 906.42] (H-[dA]A[Cha]AAAATLKQA[dA]-NH2; N-terminus and C-terminus assumed)	7.53	–	6.32	–
CC(C)C[C@H](NC(=O)[C@@H](NC(=O)[C@H](C)NC(=O)[C@H](C)NC(=O)[C@H](C)NC(=O)[C@H](C)NC(=O)[C@H](CC1CCCCC1)NC(=O)[C@H](C)NC(=O)[C@@H](C)N)[C@@H](C)O)C(=O)N[C@@H](CCCCN)C(=O)N[C@@H](Cc1ccccc1)C(=O)N[C@@H](C)C(=O)N[C@H](C)C(N)=O [Peptide 906.44] (H-[dA]A[Cha]AAAATLKFA[dA]-NH2; N-terminus and C-terminus assumed)	6.98	7.60	–	–
CC(C)C[C@H](NC(=O)[C@@H](NC(=O)[C@@H](NC(=O)[C@H](C)NC(=O)[C@H](C)NC(=O)[C@H](C)NC(=O)[C@H](CC1CCCCC1)NC(=O)[C@H](C)NC(=O)[C@@H](C)N)C(C)C)[C@@H](C)O)C(=O)N[C@@H](CCCCN)C(=O)N[C@@H](C)C(=O)N[C@@H](C)C(=O)N[C@H](C)C(N)=O [Peptide 906.26] (H-[dA]A[Cha]AAAVTLKAA[dA]-NH2; N-terminus and C-terminus assumed)	8.41	7.18	7.55	–
CC(C)C[C@H](NC(=O)[C@@H](NC(=O)[C@H](C)NC(=O)[C@H](C)NC(=O)[C@H](C)NC(=O)[C@H](C)NC(=O)[C@H](CC1CCCCC1)NC(=O)[C@H](C)NC(=O)[C@@H](C)N)[C@@H](C)O)C(=O)N[C@@H](CCCCN)C(=O)N[C@@H](CCC(=O)O)C(=O)N[C@@H](C)C(=O)N[C@H](C)C(N)=O [Peptide 906.41] (H-[dA]A[Cha]AAAATLKEA[dA]-NH2; N-terminus and C-terminus assumed)	–	6.60	–	–
CC[C@H](C)[C@H](NC(=O)[C@H](CCCCN)NC(=O)[C@H](CC(C)C)NC(=O)[C@@H](NC(=O)[C@H](C)NC(=O)[C@H](C)NC(=O)[C@H](C)NC(=O)[C@H](C)NC(=O)[C@H](CC1CCCCC1)NC(=O)[C@H](C)NC(=O)[C@@H](C)N)[C@@H](C)O)C(=O)N[C@@H](C)C(=O)N[C@H](C)C(N)=O [Peptide 906.45] (H-[dA]A[Cha]AAAATLKIA[dA]-NH2; N-terminus and C-terminus assumed)	7.55	7.60	7.25	–
CC(C)C[C@H](NC(=O)[C@@H](NC(=O)[C@H](C)NC(=O)[C@H](C)NC(=O)[C@H](C)NC(=O)[C@H](C)NC(=O)[C@H](CC1CCCCC1)NC(=O)[C@H](C)NC(=O)[C@@H](C)N)[C@@H](C)O)C(=O)N[C@@H](CCCCN)C(=O)N[C@@H](C)C(=O)N[C@@H](CCC(=O)O)C(=O)N[C@H](C)C(N)=O [Peptide 906.47] (H-[dA]A[Cha]AAAATLKAE[dA]-NH2; N-terminus and C-terminus assumed)	7.59	–	7.22	–
CC(C)C[C@H](NC(=O)[C@@H](NC(=O)[C@H](C)NC(=O)[C@H](C)NC(=O)[C@H](C)NC(=O)[C@H](C)NC(=O)[C@H](CC1CCCCC1)NC(=O)[C@H](C)NC(=O)[C@@H](C)N)[C@@H](C)O)C(=O)N[C@@H](Cc1ccccc1)C(=O)N[C@@H](C)C(=O)N[C@@H](C)C(=O)N[C@H](C)C(N)=O [Peptide 906.38]	7.72	7.25	–	–
C[C@H](NC(=O)[C@H](C)NC(=O)[C@H](C)NC(=O)[C@H](CC1CCCCC1)NC(=O)[C@H](C)NC(=O)[C@@H](C)N)C(=O)N[C@@H](C)C(=O)N[C@H](C(=O)N[C@@H](CCCCN)C(=O)N[C@@H](CCCCN)C(=O)N[C@@H](C)C(=O)N[C@@H](C)C(=O)N[C@H](C)C(N)=O)[C@@H](C)O [Peptide 906.29] (H-[dA]A[Cha]AAAATKKAA[dA]-NH2; N-terminus and C-terminus assumed)	8.11	–	6.55	Increase in DQ3.1 binding reactivity ([3]; relative to parent 760.57): no reactivity was gained
CC(C)C[C@H](NC(=O)[C@@H](NC(=O)[C@H](C)NC(=O)[C@H](C)NC(=O)[C@H](C)NC(=O)[C@H](C)NC(=O)[C@H](CC1CCCCC1)NC(=O)[C@H](C)NC(=O)[C@@H](C)N)[C@@H](C)O)C(=O)N[C@@H](CCC(N)=O)C(=O)N[C@@H](C)C(=O)N[C@@H](C)C(=O)N[C@H](C)C(N)=O [Peptide 906.36]	8.08	–	7.63	–
CC(C)C[C@H](NC(=O)[C@@H](NC(=O)[C@H](Cc1c[nH]cn1)NC(=O)[C@H](C)NC(=O)[C@H](CCCCN)NC(=O)[C@@H](NC(=O)[C@H](CC1CCCCC1)NC(=O)[C@H](CCCCN)NC(=O)[C@@H](C)N)C(C)C)[C@@H](C)O)C(=O)N[C@@H](CCCCN)C(=O)N[C@@H](C)C(=O)N[C@@H](C)C(=O)N[C@H](C)C(N)=O [Peptide 965.071]	–	–	–	pIC50 ([1]; Table IX): 7.98; pIC50 ([1]; Table IX, listed as 965.072): 8.32; pIC50 ([2]; Table IX, listed as 965.072): 6.26
CC(C)C[C@H](NC(=O)[C@@H](NC(=O)[C@H](C)NC(=O)[C@@H](NC(=O)[C@H](C)NC(=O)[C@H](C)NC(=O)[C@H](CC1CCCCC1)NC(=O)[C@H](C)NC(=O)[C@@H](C)N)C(C)C)[C@@H](C)O)C(=O)N[C@@H](CCCCN)C(=O)N[C@@H](C)C(=O)N[C@@H](C)C(=O)N[C@H](C)C(N)=O [Peptide 906.21] (H-[dA]A[Cha]AAVATLKAA[dA]-NH2; N-terminus and C-terminus assumed)	8.49	7.37	–	–
